Measured values from patent US20240116946A1 (Gilead Sciences, Inc., priority 2022, published 2024).
Read-outs that look alike come from different tables or passages of the source.

Columns and labels:
SARS-CoV-2 main protease = SARS-CoV-2 main protease (Severe acute respiratory syndrome coronavirus 2 (2019-nCoV) (SARS-CoV-2), UniProt P0DTD1); experiment: activity comparison of separated atropisomers (assay not given); settings: Isomer 1 versus Isomer 2 after chiral SFC separation; used to assign stereochemistry by analogy to Example 438
SARS-CoV-2-NLuc = experiment: microbe, parasite or virus in culture; type: cell-based, SARS Coronavirus 2
[1] = target: recombinant SARS-CoV-2 Main protease (Mpro) (Severe acute respiratory syndrome coronavirus 2 (2019-nCoV) (SARS-CoV-2), UniProt P0DTD1); experiment: Cov Mpro Biochemical IC50 Assay; settings: read-out: MPro IC50
[2] = recombinant SARS-CoV-2 Mpro 7.5 nM, fluorogenic peptide substrate 40 μM
[3] = Severe acute respiratory syndrome coronavirus, 48 h, read-out: MPro EC50
[4] = recombinant SARS-CoV-2 Mpro, fluorogenic peptide substrate
[5] = Severe acute respiratory syndrome coronavirus, 48 h; read-out: MPro EC50

| SMILES | relative activity of the two separated isomers (SARS-CoV-2 main protease) | EC50 (SARS-CoV-2-NLuc; read-out: MPro EC50) [nM] | IC50 [1, 2] [nM] | EC50 (SARS-CoV-2-NLuc; [3]) [nM] | IC50 [1, 4] [nM] | EC50 (SARS-CoV-2-NLuc; [5]) [nM] |
| --- | --- | --- | --- | --- | --- | --- |
| COc1ccc(Cl)c(-c2ccc3c(=O)n(-c4cncc5ccccc45)c(=O)[nH]c3c2)c1 (single isomer, unassigned) [Example 475, 7-(2-chloro-5-methoxy-phenyl)-3-(4-isoquinolyl)-1H-quinazoline-2,4-dione] | more active isomer | 28.5 | 17.1 | – | – | – |
| COc1ccc(Cl)c(-c2cc3[nH]c(=O)n(-c4cncc5ccccc45)c(=O)c3s2)c1 (single isomer, unassigned) [Example 465, 6-(2-chloro-5-methoxyphenyl)-3-(isoquinolin-4-yl)thieno[3,2-d]pyrimidine-2,4(1H,3H)-dione] | more active isomer | 5.23 | < 3.56 | – | – | – |
| Cn1cnc(Cn2c(=O)n(-c3cncc4ccccc34)c(=O)c3sc(-c4ccccc4Cl)cc32)n1 (single isomer, unassigned) [Example 477, 6-(2-chlorophenyl)-3-(4-isoquinolyl)-1-[(1-methyl-1,2,4-triazol-3-yl)methyl]thieno[3,2-d]pyrimidine-2,4-dione] | more active isomer | 165 | 58 | – | – | – |
| COc1ccc2cncc(-n3c(=O)[nH]c4cc(-c5ccccc5Cl)sc4c3=O)c2c1 (single isomer, unassigned) [Example 440, 6-(2-chlorophenyl)-3-(6-methoxyisoquinolin-4-yl)thieno[3,2-d]pyrimidine-2,4(1H,3H)-dione] | more active isomer | 13.4 | < 3.94 | – | – | – |
| O=c1[nH]c2cc(-c3ccccc3Cl)sc2c(=O)n1-c1cncc2ccc(N3CCOCC3)cc12 (single isomer, unassigned) [Example 442, 6-(2-chlorophenyl)-3-(6-morpholinoisoquinolin-4-yl)thieno[3,2-d]pyrimidine-2,4(1H,3H)-dione] | more active isomer | 12.3 | < 3.43 | – | – | – |
| COc1ccc(Cl)c(-c2cc3[nH]c(=O)n(-c4cncc5cccnc45)c(=O)c3s2)c1 (single isomer, unassigned) [Example 468, 6-(2-chloro-5-methoxyphenyl)-3-(1,6-naphthyridin-8-yl)thieno[3,2-d]pyrimidine-2,4(1H,3H)-dione] | more active isomer | < 6.34 | < 2.54 | – | – | – |
| Cn1cc(-c2cccc(Cl)c2-c2cc3[nH]c(=O)n(-c4cncc5ccccc45)c(=O)c3s2)c(C(F)(F)F)n1 (single isomer, unassigned) [Example 447, 6-(2-chloro-6-(1-methyl-3-(trifluoromethyl)-1H-pyrazol-4-yl)phenyl)-3-(isoquinolin-4-yl)thieno[3,2-d]pyrimidine-2,4(1H,3H)-dione] | more active isomer | 6.58 | 4.21 | – | – | – |
| Cc1c(-c2cccc(Cl)c2-c2cc3[nH]c(=O)n(-c4cncc5ccccc45)c(=O)c3s2)cn2ncnc2c1C [Example 114] | – | – | – | 44.4 | 10.9 | – |
| Cc1cc(-c2cccc(Cl)c2-c2ccc3c(=O)n(-c4cncc5ccccc45)c(=O)[nH]c3c2)cc(C#N)n1 [Example 317] | – | – | – | 4.97 | 11 | – |
| COc1ccc(C#N)c(-c2cc3[nH]c(=O)n(-c4cncc5ccccc45)c(=O)c3s2)c1 [Example 532, 2-(3-(isoquinolin-4-yl)-2,4-dioxo-1,2,3,4-tetrahydrothieno[3,2-d]pyrimidin-6-yl)-4-methoxybenzonitrile] | – | – | < 2.65 | 17.4 | – | – |
| COc1ccc(Cl)c(-c2cc3[nH]c(=O)n(-c4cncc5cnccc45)c(=O)c3s2)c1 [Example 582] | – | – | 8.83 | 31.7 | – | – |
| Cc1cc(-c2cccc(Cl)c2-c2cc3[nH]c(=O)n(-c4cncc(C5CC5)c4)c(=O)c3s2)cn2ncnc12 [Example 618] | – | – | 6.56 | 16 | – | – |
| COc1cccc(C#N)c1-c1cc2[nH]c(=O)n(-c3cncc4cnn(C)c34)c(=O)c2s1 [Example 839, 3-methoxy-2-(3-(1-methyl-1H-pyrazolo[4,3-c]pyridin-7-yl)-2,4-dioxo-1,2,3,4-tetrahydrothieno[3,2-d]pyrimidin-6-yl)benzonitrile] | – | – | 91.3 | 463 | – | – |
| O=c1[nH]c2cc(-c3ccccc3)sc2c(=O)n1-c1cncc2ccccc12 [Example 2] | – | – | – | 2490 | 267 | – |
| O=c1[nH]c2cc(-c3ccccc3Cl)ccc2c(=O)n1-c1cncc(C(F)(F)F)c1 [Example 578] | – | – | > 50000 | – | – | 9870 |
| COc1cc(-c2cc3c(s2)c(=O)n(-c2cncc4cccc(Cl)c24)c(=O)n3CCC#N)c(Cl)cc1F [Example 921] | – | – | 1.42 | 1.92 | – | – |
| COc1cc(-c2cc3c(s2)c(=O)n(-c2cnccc2C)c(=O)n3CCC#N)c(Cl)cc1F [Example 987, 3-[6-(2-chloro-4-fluoro-5-methoxy-phenyl)-3-(4-methyl-3-pyridyl)-2,4-dioxo-thieno[3,2-d]pyrimidin-1-yl]propanenitrile] | – | – | 5.68 | 5.97 | – | – |
| O=c1[nH]c2cc(-c3ccccc3Cl)sc2c(=O)n1-c1cncc2cccnc12 (single isomer, unassigned) [Example 464, 6-(2-chlorophenyl)-3-(1,6-naphthyridin-8-yl)thieno[3,2-d]pyrimidine-2,4(1H,3H)-dione] | more active isomer | 11.5 | 4.68 | – | – | – |
| COc1cnc(C#N)c(-c2cc3[nH]c(=O)n(-c4cncc5cccc(F)c45)c(=O)c3s2)c1 [Example 761] | – | – | 45.6 | – | – | 398 |
| COc1cc(-c2cc3c(s2)c(=O)n(-c2cnccc2C(F)(F)F)c(=O)n3CCC#N)c(Cl)cc1F [Example 861] | – | – | 35.8 | 68.9 | – | – |
| O=c1[nH]c2cc(-c3c(Cl)cccc3-c3cn4ncnc4c4c3CCC4)sc2c(=O)n1-c1cncc2ccccc12 [Example 520] | – | – | < 2.54 | 14.6 | – | – |
| COc1cc(-c2cc3c(s2)c(=O)n(-c2cncc(CO)c2)c(=O)n3CCC#N)c(C#N)cc1F [Example 1102] | – | – | 4.12 | 568 | – | – |
| NC(=O)c1cccc(-c2cccc(Cl)c2-c2ccc3c(=O)n(-c4cncc5ccccc45)c(=O)[nH]c3c2)c1 [Example 242] | – | – | – | 40.1 | 10.4 | – |
| COc1cc(-c2cc3c(s2)c(=O)n(-c2nncc4c(C)nn(C)c24)c(=O)n3CCC#N)c(Cl)cc1F [Example 892] | – | – | 13.5 | 32.9 | – | – |
